# Measured values: patent US11478467B2 (priority 2017, dated 2022)
# Structures can show the parent of a compound that is named as a salt. Where two headings read alike, the source gives them in different places.
# How the values were obtained:
# [1] = target: peripheral 5-HT2A receptors (Rattus norvegicus (Rat), UniProt P14842); conditions: cited from earlier work; for 5-methoxytryptamine-induced hyperglycemia: pretreatment
# CYP2D6 [2] = target: T1, CYP2D6 (Homo sapiens (Human), UniProt P10635); conditions: DEX O-demethylation; read-out: estimated mean IC50; cited from earlier work
# [3] = cited from earlier work
# 5-HT2A receptors = 5-HT2A receptors (Homo sapiens (Human), UniProt P28223); test: 5-HT2A receptor antagonist radioligand binding ([3H]ketanserin); conditions: for pKi / Ki: Ki calculated using the Cheng Prusoff equation; for IC50: inhibition of [3H]ketanserin binding, HEK-293 cells expressing human recombinant 5HT2A receptor
# Description: HEK-293 cells expressing human recombinant 5HT2A receptor were used in the antagonist radioligand binding studies. […] The inhibition constants (Ki) were calculated using the Cheng Prusoff equation. Both sarpogrelate enantiomers were potent inhibitors of [3H]ketanserin binding (Table 1). M1 enantiomers also potently bind to 5HT2A receptors with the Ki values that are approximately one order of magnitude higher than those of sarpogrelate enantiomers (Table 1). There are no meaningful differences between enantiomers in terms of 5-HT2A receptor binding for sarpogrelate or its main metabolite.
# 5HT2a ASSAY: Evaluation of the affinity of compounds for the human 5-HT2A receptor in transfected HEK-293 cells determined in a radioligand binding assay. Cell membrane homogenates (30-50 μg protein) were incubated 15 min at 37° C. with 0.5 nM [3H]ketanserin in the absence or presence of the test compound in a buffer containing 50 mM Tris-HCl (pH 7.4). Nonspecific binding was determined in the presence of 1 μM ketanserin. Following incubation, the samples were filtered rapidly under vacuum through glass fiber filters presoaked with 0.3% PEI and rinsed several times with ice-cold 50 mM Tris-HCl using a 96-sample cell harvester. The filters were dried then counted for radioactivity in a scintillation counter using a scintillation cocktail (WO2005013952A1, EP1500391A1[ab1], incorporated in its entirety by reference).
# CYP2D6 [4] = target: T1, CYP2D6; test: Dextromethorphan O-demethylase activity in human liver microsomes; format: biochemical; conditions: CYP 2D6 activity; pooled human liver microsomes 0.25 mg/ml; read-out: IC50
# Description: Dextromethorphan O-demethylase activity was determined in human liver microsomes. […] The incubation mixtures contained pooled human liver microsomes (final concentrations: 0.25 mg/ml), dextromethorphan, and a NADPH-generating system (1.3 mM NADP+, 3.3 mM glucose 6-phosphate, 3.3 mM MgCl2, and 0.4 U/ml glucose-6-phosphate dehydrogenase). […] All incubations were performed in triplicate, and mean values were used for analysis. […] Both sarpogrelate enantiomers inhibited CYP2D6-mediated dextromethorphan O-demethylation (Table 4).
# [5] = Inhibition of dextromethorphan metabolism in vivo (dextromethorphan plasma levels after sarpogrelate); parameters: species or system rat; conditions: for Dextromethorphan AUC: dextromethorphan 50 mg/kg oral gavage, AUC 0-6 h, rat plasma
# Description: In a separate set of studies, ability of sarpogrelate to inhibit dextromethorphan metabolism in vivo was studied in rats. Adult male Sprague Dawley rats (RjHan:SD) purchased from Janvier Labs (France) were housed in a climate-controlled room under a 12 h light/12 h dark cycle with ad libitum access to food and water. Two-three days prior to blood sampling, rats were provided with a catheter in the jugular vein and, thereafter, rats treated once with Carprofen (5 mg/kg) directly after surgery and catheters were rinsed daily with Heparin (500 IE/ml) (20 μl/rat/day). On the day of the experiment, dextromethorphan (50 mg/kg) was administered by oral gavage, immediately followed by intravenous bolus injection of sarpogrelate (1, 3 or 10 mg/kg; racemate or one of the enantiomers) or vehicle via vascular access port at t=0 h. Blood samples were collected at four time points until 6 hours post dextromethorphan administration. Sample size was 80 μl Li-heparin whole blood/time point, i.e. 40 μl Li-heparin plasma/time point. Whole blood samples were stored on ice until centrifugation (10 min at 3000 g, 4° C.). Plasma was prepared within 45 min after collection, frozen at −20° C. and stored at this temperature until processed for LC-MS analysis.
# [6] = test system: PCP-induced hyperactivity; test: Phencyclidine-induced hyperactivity in rats (sarpogrelate and dextromethorphan); format: in vivo, rat; conditions: in the presence of dextromethorphan; racemate 3 mg/kg, (−) sarpogrelate 1 or 3 mg/kg i.p.; PCP 5 mg/kg s.c.; 60-120 min
# [7] = test system: MK-801-induced hyperactivity; test: MK-801-induced hyperactivity in rats; format: in vivo, rat
# Description: To confirm the ability of M1 enantiomers to induce effects that are relevant to CNS diseases and that are known for 5-HT2A receptor […], separate groups of female Wistar rats (n=6-9), housed 4-5 per cage under standard colony room conditions with free access to food and water, were pretreated intraperitoneally with varying doses of one of the two M1 enantiomers (0, 3 or 10 mg/kg) followed 15 minutes later by 0.1 mg/kg of MK801 or its vehicle and immediately thereafter placed into computer-controlled motor activity recording chambers (25×35.5×34 cm, L×W×H; transparent Plexiglas walls and a non-transparent plastic floor; enclosed within sound-attenuating ventilated cubicles) for 60 minutes, during which infrared photocell interruptions (5 cm and 14 cm off the floor) were recorded as a measure of motor activity. MK-801 is a phencyclidine-like NMDA receptor channel blocked commonly used in psychopharmacology research on novel therapies including novel antipsychotics.
# [8] = test system: locomotor activity, stereotypy, ataxia; conditions: DO 15-120 mg/kg, DEX 15-120 mg/kg, PCP 1.25-20 mg/kg; rats; cited from earlier work
# [9] = test system: behavioral disturbances in Alzheimer's disease; conditions: human, in vivo; cited from earlier work
# [10] = test system: NPI scores and sleep in patients with AD; conditions: human, in vivo; cited from earlier work
# CYP2D6 [11] = target: T1, CYP2D6; conditions: dextromethorphan as substrate; cited from earlier work
# [12] = sarpogrelate dose 1 mg/kg i.v. bolus
# [13] = sarpogrelate dose 3 mg/kg i.v. bolus
# [14] = sarpogrelate dose 10 mg/kg i.v. bolus
# T1 sequence (P10635 whole entry): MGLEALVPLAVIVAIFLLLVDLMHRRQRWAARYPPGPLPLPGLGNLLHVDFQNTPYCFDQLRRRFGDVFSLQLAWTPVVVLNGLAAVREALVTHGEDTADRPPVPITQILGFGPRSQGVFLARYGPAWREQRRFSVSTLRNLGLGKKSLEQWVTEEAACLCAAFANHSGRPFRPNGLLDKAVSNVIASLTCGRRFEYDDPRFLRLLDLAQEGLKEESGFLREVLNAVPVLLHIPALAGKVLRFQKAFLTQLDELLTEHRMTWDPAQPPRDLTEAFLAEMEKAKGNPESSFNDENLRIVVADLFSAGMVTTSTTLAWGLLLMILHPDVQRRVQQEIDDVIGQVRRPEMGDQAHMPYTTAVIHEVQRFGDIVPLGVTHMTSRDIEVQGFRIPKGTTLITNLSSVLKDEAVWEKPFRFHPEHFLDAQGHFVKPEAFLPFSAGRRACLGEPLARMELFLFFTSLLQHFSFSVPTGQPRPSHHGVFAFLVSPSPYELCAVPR
# Chain of 5-HT2A receptors (P28223 whole entry): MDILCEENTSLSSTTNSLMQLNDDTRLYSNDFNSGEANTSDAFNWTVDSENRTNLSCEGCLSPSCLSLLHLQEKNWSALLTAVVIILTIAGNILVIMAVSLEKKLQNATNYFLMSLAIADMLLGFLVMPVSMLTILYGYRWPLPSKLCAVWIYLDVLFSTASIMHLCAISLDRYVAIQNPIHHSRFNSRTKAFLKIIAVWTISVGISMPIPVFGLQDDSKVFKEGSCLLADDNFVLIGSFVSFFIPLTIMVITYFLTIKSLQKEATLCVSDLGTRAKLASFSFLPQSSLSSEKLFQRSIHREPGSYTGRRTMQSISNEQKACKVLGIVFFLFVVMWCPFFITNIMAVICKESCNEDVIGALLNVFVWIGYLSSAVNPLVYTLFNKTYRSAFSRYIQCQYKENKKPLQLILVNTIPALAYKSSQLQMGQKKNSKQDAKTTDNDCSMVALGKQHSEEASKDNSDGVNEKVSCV
smiles,measurement,setting,value
COc1ccc2[nH]cc(CCN)c2c1 [5-methoxytryptamine],blood glucose,[1]; agonist given alone,induced hyperglycemia
CN1CCN(CC/C=C2/c3ccccc3Sc3ccc(S(=O)(=O)N(C)C)cc32)CC1 [Cisthiothixene],IC50,CYP2D6 [2],137 µM
"COc1cccc(CCc2ccccc2OCC(CN(C)C)OC(=O)CCC(=O)O)c1 (stereo not shown) [Compound 50 hydrochloride, Butanedioic acid, mono(2-(dimethylamino)-1-((2-(2-(3-methoxyphenyl)ethyl)phenoxy)methyl)ethyl) ester, hydrochloride]",mortality,"[3]; 5, 20, 80 and 320 mg/kg/day orally, 52 weeks, beagle dogs",No animal died or was sacrificed in extremis
same,Food consumption,"[3]; dog, in vivo, po",inhibited in females receiving 80 mg/kg/day and over
same,biochemical examination,"[3]; dog, in vivo, po","an increase in potassium in males receiving 80 mg/kg/day and over, and females receiving 320 mg/kg/day"
same,electrocardiographic or ophthalmoscopic examination,"[3]; dog, in vivo, po",no treatment related change
same,general conditions: emesis,"[3]; dog, in vivo, po",emesis was noted in males and females receiving 320 mg/kg/day and males receiving 80 mg/kg/day
same,general conditions: salivation,"[3]; dog, in vivo, po",salivation in females receiving 320 mg/kg/day
same,hematological examination,"[3]; dog, in vivo, po",an increase in a platelet count in males receiving 320 mg/kg/day
same,histopathological examination of the kidney,"[3]; dog, in vivo, po",fatty degeneration was revealed in the cortico-medullary border zone of the kidney in males receiving 320 mg/kg/day
same,urinalysis,"[3]; dog, in vivo, po",an increase in protein was revealed in females receiving 320 mg/kg/day
same,water consumption,"[3]; dog, in vivo, po",inhibition of water consumption
COc1cccc(CCc2ccccc2OC[C@H](CN(C)C)OC(=O)CCC(=O)O)c1 [Compound 51],pKi,5-HT2A receptors,8.4
same,IC50,5-HT2A receptors,0.0075 µM
same,IC50,CYP2D6 [4],0.58 µM
same,Fold increase (relative to vehicle) of dextromethorphan AUC,[5]; sarpogrelate dose 1 mg/kg,1.4 fold
same,Dextromethorphan AUC,[5]; [12],0.827 µg·h/mL
same,Fold increase (relative to vehicle) of dextromethorphan AUC,[5]; sarpogrelate dose 3 mg/kg,3.3 fold
same,Dextromethorphan AUC,[5]; [13],2.0215 µg·h/mL
same,Fold increase (relative to vehicle) of dextromethorphan AUC,[5]; sarpogrelate dose 10 mg/kg,6.9 fold
same,Dextromethorphan AUC,[5]; [14],4.1543 µg·h/mL
COc1cccc(CCc2ccccc2OCC(CN(C)C)OC(=O)CCC(=O)O)c1 (stereo not shown) [Compound 52],pKi,5-HT2A receptors,8.2
same,IC50,5-HT2A receptors,0.011 µM
same,IC50,CYP2D6 [4],1.3 µM
same,Fold increase (relative to vehicle) of dextromethorphan AUC,[5]; sarpogrelate dose 1 mg/kg,1.5 fold
same,Dextromethorphan AUC,[5]; [12],0.9214 µg·h/mL
same,Fold increase (relative to vehicle) of dextromethorphan AUC,[5]; sarpogrelate dose 3 mg/kg,2.7 fold
same,Dextromethorphan AUC,[5]; [13],1.6495 µg·h/mL
same,Fold increase (relative to vehicle) of dextromethorphan AUC,[5]; sarpogrelate dose 10 mg/kg,5.3 fold
same,Dextromethorphan AUC,[5]; [14],3.1959 µg·h/mL
same,motor hyperactivity in PCP-treated rats,[6],inhibited motor hyperactivity in PCP-treated rats
"COc1cccc(CCc2ccccc2OC[C@@H](O)CN(C)C)c1 [Compound 147, (S)-1-(dimethylamino)-3-(2-(3-methoxyphenethyl)phenoxy)propan-2-ol]",Ki,5-HT2A receptors,0.000794 µM
same,IC50,5-HT2A receptors,0.0012 µM
same,IC50,CYP2D6 [4],0.038 µM
"COc1cccc(CCc2ccccc2OC[C@H](O)CN(C)C)c1 [Compound 148, (R)-1-(dimethylamino)-3-(2-(3-methoxyphenethyl)phenoxy) propan-2-ol]",Ki,5-HT2A receptors,0.000631 µM
same,IC50,5-HT2A receptors,0.0013 µM
same,IC50,CYP2D6 [4],0.096 µM
same,"hyperactivity induced by MK-801 (motor activity, 60 min)","[7]; M1 enantiomer 3 or 10 mg/kg i.p., 15 min before 0.1 mg/kg MK801, female Wistar rats",reduced hyperactivity induced by MK-801
"COc1cccc([C@H](O)C2CCN(CCc3ccc(F)cc3)CC2)c1OC [M-100,907]","hyperactivity induced by MK-801 (motor activity, 60 min)",[7]; 3 mg/kg,reduced hyperactivity induced by MK-801
"c1ccc(C2(N3CCCCC3)CCCCC2)cc1 [PCP, 1-(1-phenylcyclohexyl)piperidine]","behavioral effects given alone (locomotor hyperactivity, stereotypy, ataxia)",[8],"dose-dependent locomotor hyperactivity, stereotypy and ataxia"
O=C(c1ccc(F)cc1)C1CCN(CCn2c(=O)[nH]c3ccccc3c2=O)CC1 [ketanserin],5-methoxytryptamine-induced hyperglycemia,[1],prevented
"CC12CC3CC(C)(C1)CC(N)(C3)C2 [memantine, 3,5-dimethyladamantan-1-amine]",agitation/aggression,[9],significant improvement in agitation/aggression
same,delusions,[9],significant improvement in delusions
same,disinhibition,[9],significant improvement in disinhibition
same,irritability/lability,[9],superior to control in irritability/lability
same,nighttime disturbance/diurnal rhythm disturbances,[9],significant improvement in nighttime disturbance/diurnal rhythm disturbances
same,fragmented sleep,[10],effective in reducing fragmented sleep
same,scores of NPI item for irritability/lability,[10],significantly decreases the scores of NPI item for irritability/lability
same,scores of NPI subscale for anxiety,[10],significantly decreases in the scores of NPI subscale for anxiety
C=C[C@H]1C[N@@]2CC[C@H]1C[C@@H]2[C@@H](O)c1ccnc2ccc(OC)cc12 [quinidine],inhibition type (Dixon plots),CYP2D6 [11],fit well to all competitive inhibition types
Cc1nc2n(c(=O)c1CCN1CCC(c3noc4cc(F)ccc34)CC1)CCCC2 [risperidone],IC50,CYP2D6 [2],39.1 µM
COc1cccc(OC(C)CNC(=N)Cc2cccc(C)c2)c1 (stereo not shown) [xylamidine],5-methoxytryptamine-induced hyperglycemia,[1],prevented
